Activity calls are given as the source filed them. Cut-off read from the data, not from the text of the source, for most assays here: actives have a measured Kd and inactives only a lower limit.
Legend:
[1] = biological target: Serine/threonine-protein kinase SIK3 (Homo sapiens, UniProt Q9Y2K2)
[2] = biological target: Serine/threonine-protein kinase MRCK beta (Homo sapiens, UniProt Q9Y5S2)
[3] = biological target: Cyclin-dependent kinase 1 (Homo sapiens, UniProt P06493)
Aurora kinase A = biological target: T1, Aurora kinase A (Homo sapiens, UniProt O14965)
T1 sequence (O14965 whole entry): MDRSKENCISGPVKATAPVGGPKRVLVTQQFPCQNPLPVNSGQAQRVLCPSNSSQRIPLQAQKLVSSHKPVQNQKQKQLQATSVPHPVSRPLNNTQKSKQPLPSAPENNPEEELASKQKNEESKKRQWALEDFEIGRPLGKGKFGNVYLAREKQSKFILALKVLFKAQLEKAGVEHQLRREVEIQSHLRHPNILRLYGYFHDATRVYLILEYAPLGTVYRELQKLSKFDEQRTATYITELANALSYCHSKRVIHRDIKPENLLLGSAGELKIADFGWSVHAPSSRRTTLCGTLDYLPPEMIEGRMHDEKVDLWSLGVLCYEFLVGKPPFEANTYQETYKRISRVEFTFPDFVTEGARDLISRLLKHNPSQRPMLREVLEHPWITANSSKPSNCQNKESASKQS

[4] = biological target: Receptor-interacting serine/threonine-protein kinase 3 (Homo sapiens, UniProt Q9Y572)
Chain of Receptor-interacting serine/threonine-protein kinase 3 (Q9Y572 whole entry): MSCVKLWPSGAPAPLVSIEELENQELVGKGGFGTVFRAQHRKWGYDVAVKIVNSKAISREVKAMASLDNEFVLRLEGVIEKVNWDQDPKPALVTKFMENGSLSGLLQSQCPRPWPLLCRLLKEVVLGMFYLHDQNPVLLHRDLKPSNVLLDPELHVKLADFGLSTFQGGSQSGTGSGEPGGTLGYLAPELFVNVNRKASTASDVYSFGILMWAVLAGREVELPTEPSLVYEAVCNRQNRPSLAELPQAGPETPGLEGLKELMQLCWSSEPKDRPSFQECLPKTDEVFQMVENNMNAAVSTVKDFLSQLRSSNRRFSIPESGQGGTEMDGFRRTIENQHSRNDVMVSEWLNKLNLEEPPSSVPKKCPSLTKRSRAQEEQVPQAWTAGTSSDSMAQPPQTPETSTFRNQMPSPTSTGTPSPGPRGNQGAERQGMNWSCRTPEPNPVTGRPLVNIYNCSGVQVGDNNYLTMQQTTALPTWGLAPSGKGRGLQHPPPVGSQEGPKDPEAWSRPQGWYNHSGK

[5] = biological target: Protein-tyrosine kinase 2-beta (Homo sapiens, UniProt Q14289)
Chain of Protein-tyrosine kinase 2-beta (Q14289 whole entry): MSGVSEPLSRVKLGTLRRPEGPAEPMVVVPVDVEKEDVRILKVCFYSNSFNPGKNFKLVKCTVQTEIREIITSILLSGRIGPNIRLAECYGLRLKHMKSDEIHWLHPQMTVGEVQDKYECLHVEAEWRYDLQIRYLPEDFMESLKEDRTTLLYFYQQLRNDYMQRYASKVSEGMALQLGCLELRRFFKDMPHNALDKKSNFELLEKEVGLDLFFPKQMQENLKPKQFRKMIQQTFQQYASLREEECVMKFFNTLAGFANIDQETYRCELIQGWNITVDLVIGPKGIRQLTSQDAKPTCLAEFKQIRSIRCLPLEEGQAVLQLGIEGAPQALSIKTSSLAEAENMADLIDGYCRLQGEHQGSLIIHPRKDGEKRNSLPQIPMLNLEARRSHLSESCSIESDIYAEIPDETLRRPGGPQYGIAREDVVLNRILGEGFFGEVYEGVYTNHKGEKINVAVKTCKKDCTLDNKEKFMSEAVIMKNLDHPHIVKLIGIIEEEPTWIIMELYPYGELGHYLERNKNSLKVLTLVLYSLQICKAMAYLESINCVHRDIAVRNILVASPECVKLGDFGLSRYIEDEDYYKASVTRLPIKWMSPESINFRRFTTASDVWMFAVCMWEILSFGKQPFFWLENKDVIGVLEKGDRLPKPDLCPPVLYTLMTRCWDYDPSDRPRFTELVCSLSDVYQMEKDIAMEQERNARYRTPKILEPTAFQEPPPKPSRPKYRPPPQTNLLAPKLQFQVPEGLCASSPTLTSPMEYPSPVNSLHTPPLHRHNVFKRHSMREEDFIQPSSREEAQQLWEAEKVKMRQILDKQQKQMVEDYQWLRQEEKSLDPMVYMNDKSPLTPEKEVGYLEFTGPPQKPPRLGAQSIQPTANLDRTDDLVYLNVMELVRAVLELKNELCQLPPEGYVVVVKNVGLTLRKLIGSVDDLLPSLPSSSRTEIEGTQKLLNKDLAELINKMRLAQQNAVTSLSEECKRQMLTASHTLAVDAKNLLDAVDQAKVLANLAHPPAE

[6] = biological target: T2, Cytochrome c1, heme protein, mitochondrial (Homo sapiens, UniProt P08574)
T2 sequence (P08574 whole entry): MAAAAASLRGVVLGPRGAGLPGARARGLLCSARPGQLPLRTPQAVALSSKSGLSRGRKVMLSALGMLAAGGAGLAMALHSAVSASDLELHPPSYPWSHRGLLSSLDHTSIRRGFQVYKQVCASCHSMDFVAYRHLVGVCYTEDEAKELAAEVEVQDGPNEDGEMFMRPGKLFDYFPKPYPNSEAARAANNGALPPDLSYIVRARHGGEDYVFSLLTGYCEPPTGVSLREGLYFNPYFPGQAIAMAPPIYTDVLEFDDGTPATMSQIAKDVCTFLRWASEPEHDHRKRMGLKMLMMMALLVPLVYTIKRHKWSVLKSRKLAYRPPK

[7] = biological target: T3, Dual specificity mitogen-activated protein kinase kinase 3 (Homo sapiens, UniProt P46734)
T3 sequence (P46734 whole entry): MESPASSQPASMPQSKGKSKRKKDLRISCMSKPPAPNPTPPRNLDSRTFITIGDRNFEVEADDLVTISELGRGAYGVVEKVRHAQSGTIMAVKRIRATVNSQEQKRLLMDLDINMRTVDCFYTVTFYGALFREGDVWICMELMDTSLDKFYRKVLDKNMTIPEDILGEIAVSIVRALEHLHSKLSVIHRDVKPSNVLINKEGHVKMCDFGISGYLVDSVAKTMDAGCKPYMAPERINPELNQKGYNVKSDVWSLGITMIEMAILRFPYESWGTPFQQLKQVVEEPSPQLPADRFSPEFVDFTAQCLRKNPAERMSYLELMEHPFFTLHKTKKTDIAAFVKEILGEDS

[8] = biological target: T4, Serine/threonine-protein kinase 4 (Homo sapiens, UniProt Q13043)
T4 sequence (Q13043 whole entry): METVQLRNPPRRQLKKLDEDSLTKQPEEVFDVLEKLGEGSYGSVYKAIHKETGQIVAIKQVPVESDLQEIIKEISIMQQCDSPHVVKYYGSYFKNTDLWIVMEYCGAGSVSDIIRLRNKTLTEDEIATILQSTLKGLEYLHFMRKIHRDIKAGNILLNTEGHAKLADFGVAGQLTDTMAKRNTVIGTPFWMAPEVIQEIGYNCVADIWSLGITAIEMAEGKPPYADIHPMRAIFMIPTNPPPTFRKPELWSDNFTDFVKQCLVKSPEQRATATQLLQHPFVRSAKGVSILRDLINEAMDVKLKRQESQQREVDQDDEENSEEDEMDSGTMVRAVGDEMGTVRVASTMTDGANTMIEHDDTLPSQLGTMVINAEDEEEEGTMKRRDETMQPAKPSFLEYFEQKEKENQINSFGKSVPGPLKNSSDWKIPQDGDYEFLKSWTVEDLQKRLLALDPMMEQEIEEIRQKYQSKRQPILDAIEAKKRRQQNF

[9] = biological target: cAMP-dependent protein kinase catalytic subunit alpha (Homo sapiens, UniProt P17612)
[10] = biological target: T5, Serine/threonine-protein kinase Nek3 (Homo sapiens, UniProt P51956)
T5 sequence (P51956 whole entry): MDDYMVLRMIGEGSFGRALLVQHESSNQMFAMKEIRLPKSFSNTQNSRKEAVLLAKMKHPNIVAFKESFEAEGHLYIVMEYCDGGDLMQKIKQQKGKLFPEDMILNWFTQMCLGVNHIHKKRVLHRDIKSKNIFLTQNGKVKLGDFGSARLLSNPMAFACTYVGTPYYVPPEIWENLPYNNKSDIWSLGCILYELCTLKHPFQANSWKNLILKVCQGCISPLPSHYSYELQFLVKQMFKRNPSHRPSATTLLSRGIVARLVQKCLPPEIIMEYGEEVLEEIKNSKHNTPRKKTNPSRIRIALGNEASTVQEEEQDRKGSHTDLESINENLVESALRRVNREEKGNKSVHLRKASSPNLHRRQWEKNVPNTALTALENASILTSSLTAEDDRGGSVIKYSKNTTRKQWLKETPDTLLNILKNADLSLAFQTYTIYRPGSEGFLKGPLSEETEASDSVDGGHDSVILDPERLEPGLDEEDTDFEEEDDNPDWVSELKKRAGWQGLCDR

[11] = biological target: Cyclin-dependent kinase 3 (Homo sapiens, UniProt Q00526)
Chain of Cyclin-dependent kinase 3 (Q00526 whole entry): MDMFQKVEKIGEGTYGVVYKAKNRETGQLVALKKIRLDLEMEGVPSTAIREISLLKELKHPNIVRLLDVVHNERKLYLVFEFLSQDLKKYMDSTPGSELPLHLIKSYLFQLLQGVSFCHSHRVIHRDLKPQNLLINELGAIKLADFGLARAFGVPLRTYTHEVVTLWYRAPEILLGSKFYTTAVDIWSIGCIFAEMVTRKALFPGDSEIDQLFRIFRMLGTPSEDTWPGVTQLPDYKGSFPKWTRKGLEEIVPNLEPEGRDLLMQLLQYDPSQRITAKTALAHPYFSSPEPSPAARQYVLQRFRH

[12] = biological target: Ribosomal protein S6 kinase alpha-4 (Homo sapiens, UniProt O75676)
Chain of Ribosomal protein S6 kinase alpha-4 (O75676 whole entry): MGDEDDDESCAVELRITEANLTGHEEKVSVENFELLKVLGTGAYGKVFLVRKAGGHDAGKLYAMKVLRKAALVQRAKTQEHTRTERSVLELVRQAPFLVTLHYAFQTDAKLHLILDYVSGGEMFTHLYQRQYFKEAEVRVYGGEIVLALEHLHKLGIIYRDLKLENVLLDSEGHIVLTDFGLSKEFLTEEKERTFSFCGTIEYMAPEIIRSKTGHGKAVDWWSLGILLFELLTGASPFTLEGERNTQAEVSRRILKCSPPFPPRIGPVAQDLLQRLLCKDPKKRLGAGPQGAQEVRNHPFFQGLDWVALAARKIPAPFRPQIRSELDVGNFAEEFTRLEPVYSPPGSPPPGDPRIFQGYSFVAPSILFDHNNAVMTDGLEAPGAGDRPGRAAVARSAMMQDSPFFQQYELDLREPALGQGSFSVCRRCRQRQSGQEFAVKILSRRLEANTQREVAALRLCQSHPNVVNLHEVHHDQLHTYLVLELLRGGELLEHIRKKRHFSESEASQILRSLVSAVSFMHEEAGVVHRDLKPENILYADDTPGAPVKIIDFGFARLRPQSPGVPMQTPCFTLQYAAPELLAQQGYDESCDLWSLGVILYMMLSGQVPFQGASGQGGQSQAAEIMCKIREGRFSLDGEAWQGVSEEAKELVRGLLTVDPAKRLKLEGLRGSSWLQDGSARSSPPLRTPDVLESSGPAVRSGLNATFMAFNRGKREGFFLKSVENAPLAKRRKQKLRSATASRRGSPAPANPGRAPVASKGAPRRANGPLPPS

[13] = biological target: Tyrosine-protein kinase HCK (Homo sapiens, UniProt P08631)
Chain of Tyrosine-protein kinase HCK (P08631 whole entry): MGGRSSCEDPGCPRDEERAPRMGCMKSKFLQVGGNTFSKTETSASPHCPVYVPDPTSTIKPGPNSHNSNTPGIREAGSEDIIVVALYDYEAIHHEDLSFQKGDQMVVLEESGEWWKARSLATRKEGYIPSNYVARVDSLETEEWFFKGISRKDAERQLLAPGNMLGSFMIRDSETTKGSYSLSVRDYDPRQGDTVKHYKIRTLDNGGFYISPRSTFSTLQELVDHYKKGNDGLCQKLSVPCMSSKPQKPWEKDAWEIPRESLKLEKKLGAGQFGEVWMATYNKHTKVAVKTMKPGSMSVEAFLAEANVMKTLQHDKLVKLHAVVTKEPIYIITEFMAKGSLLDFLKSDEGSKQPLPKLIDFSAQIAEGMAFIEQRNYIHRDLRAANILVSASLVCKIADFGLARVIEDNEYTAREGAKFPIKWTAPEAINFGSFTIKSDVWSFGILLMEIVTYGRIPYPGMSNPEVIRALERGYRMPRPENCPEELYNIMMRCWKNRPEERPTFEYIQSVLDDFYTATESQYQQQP

Insulin receptor = Insulin receptor (Homo sapiens, UniProt P06213)
DNA topoisomerase 2-beta = DNA topoisomerase 2-beta (Homo sapiens, UniProt Q02880)
Note: in the data inactive means no Kd found up to 30 µM.

Chain of Serine/threonine-protein kinase SIK3 (Q9Y2K2 whole entry): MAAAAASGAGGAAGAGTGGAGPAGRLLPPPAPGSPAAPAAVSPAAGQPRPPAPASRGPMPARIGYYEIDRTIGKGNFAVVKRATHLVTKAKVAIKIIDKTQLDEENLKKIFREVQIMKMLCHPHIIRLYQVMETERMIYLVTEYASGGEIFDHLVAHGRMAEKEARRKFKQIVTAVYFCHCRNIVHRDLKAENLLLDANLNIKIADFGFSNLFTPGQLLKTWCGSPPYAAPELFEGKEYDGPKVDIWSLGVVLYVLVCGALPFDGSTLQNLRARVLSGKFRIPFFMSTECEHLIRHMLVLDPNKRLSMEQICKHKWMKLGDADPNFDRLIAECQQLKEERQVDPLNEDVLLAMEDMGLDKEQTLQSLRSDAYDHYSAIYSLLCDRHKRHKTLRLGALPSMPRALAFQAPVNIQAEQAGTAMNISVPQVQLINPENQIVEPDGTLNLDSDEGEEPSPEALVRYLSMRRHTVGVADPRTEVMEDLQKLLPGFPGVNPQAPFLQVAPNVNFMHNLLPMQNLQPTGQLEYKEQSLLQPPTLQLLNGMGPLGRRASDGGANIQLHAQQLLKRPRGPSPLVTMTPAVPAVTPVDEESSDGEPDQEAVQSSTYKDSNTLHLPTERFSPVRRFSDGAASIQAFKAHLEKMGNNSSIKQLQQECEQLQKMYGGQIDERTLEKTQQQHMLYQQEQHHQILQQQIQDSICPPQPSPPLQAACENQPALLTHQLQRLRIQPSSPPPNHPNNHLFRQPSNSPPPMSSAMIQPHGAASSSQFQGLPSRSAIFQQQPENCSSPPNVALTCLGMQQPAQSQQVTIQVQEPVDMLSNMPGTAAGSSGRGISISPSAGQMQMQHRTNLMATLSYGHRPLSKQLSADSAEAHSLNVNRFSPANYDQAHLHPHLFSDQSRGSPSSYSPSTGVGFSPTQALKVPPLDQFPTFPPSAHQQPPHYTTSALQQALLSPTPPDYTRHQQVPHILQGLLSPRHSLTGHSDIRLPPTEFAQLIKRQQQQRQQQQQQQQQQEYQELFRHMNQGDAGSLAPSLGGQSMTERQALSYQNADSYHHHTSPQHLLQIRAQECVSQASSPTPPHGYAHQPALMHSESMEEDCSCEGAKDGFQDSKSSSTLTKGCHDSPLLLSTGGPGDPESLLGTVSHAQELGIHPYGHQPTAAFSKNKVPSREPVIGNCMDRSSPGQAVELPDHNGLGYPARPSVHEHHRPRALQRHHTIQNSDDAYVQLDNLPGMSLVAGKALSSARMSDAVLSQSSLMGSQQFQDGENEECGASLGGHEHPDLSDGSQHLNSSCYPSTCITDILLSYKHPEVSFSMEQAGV
Chain of Cyclin-dependent kinase 1 (P06493 whole entry): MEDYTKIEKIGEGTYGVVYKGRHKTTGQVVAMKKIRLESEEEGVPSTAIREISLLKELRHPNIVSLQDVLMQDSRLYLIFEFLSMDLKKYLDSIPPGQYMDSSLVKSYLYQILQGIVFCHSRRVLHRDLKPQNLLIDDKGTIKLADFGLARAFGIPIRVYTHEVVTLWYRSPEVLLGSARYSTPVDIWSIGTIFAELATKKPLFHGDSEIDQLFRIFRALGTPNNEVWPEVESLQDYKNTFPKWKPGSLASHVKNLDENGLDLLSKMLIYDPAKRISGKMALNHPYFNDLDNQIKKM

Row | Kd [1] | Kd [2] | Kd [3] | Kd (Aurora kinase A) | Kd [4] | Kd [5] | Kd [6] | Kd [7] | Kd [8] | Kd [9] | Kd [10] | Kd [11] | Kd [12] | Kd [13] | Kd (Insulin receptor) | Kd (DNA topoisomerase 2-beta) | SMILES
1 | > 30 µM (inactive) | > 30 µM (inactive) | > 30 µM (inactive) | > 30 µM (inactive) | > 30 µM (inactive) | > 30 µM (inactive) | > 30 µM (inactive) | > 30 µM (inactive) | > 30 µM (inactive) | > 30 µM (inactive) | > 30 µM (inactive) | > 30 µM (inactive) | > 30 µM (inactive) | > 30 µM (inactive) | > 30 µM (inactive) | > 30 µM (inactive) | Cc1cc2c(F)c(Oc3ncnn4cc(OC[C@@H](C)OC(=O)[C@H](C)N)c(C)c34)ccc2[nH]1 [BRIVANIB ALANINATE]
2 | > 30 µM (inactive) | > 30 µM (inactive) | > 30 µM (inactive) | > 30 µM (inactive) | > 30 µM (inactive) | > 30 µM (inactive) | > 30 µM (inactive) | > 30 µM (inactive) | > 30 µM (inactive) | > 30 µM (inactive) | > 30 µM (inactive) | > 30 µM (inactive) | > 30 µM (inactive) | > 30 µM (inactive) | > 30 µM (inactive) | > 30 µM (inactive) | Cc1ccc(S(=O)(=O)Nc2nc3ccccc3nc2Nc2ccc3nsnc3c2)cc1
3 | > 30 µM (inactive) | > 30 µM (inactive) | > 30 µM (inactive) | > 30 µM (inactive) | > 30 µM (inactive) | > 30 µM (inactive) | > 30 µM (inactive) | > 30 µM (inactive) | > 30 µM (inactive) | > 30 µM (inactive) | > 30 µM (inactive) | > 30 µM (inactive) | > 30 µM (inactive) | > 30 µM (inactive) | > 30 µM (inactive) | > 30 µM (inactive) | Cc1c(F)cc(C(=O)NC2CC2)cc1-c1ccc(C(=O)NCC(C)(C)C)cn1 [LOSMAPIMOD]
4 | > 30 µM (inactive) | > 30 µM (inactive) | > 30 µM (inactive) | > 30 µM (inactive) | > 30 µM (inactive) | 0.273 µM (active) | > 30 µM (inactive) | > 30 µM (inactive) | > 30 µM (inactive) | > 30 µM (inactive) | > 30 µM (inactive) | > 30 µM (inactive) | > 30 µM (inactive) | 1.25 µM (active) | 7.91 µM (active) | > 30 µM (inactive) | COc1cc(N2CCC(N3CCN(C)CC3)CC2)ccc1Nc1ncnc(Nc2ccccc2S(=O)(=O)C(C)C)n1 [ASP-3026]
5 | > 30 µM (inactive) | > 30 µM (inactive) | > 30 µM (inactive) | > 30 µM (inactive) | > 30 µM (inactive) | > 30 µM (inactive) | > 30 µM (inactive) | > 30 µM (inactive) | > 30 µM (inactive) | > 30 µM (inactive) | > 30 µM (inactive) | > 30 µM (inactive) | > 30 µM (inactive) | > 30 µM (inactive) | > 30 µM (inactive) | > 30 µM (inactive) | CCn1c(=O)c(-c2cc[nH]n2)cc2c(C)nc(N)nc21 [VOXTALISIB]
6 | > 30 µM (inactive) | > 30 µM (inactive) | > 30 µM (inactive) | > 30 µM (inactive) | > 30 µM (inactive) | > 30 µM (inactive) | > 30 µM (inactive) | > 30 µM (inactive) | > 30 µM (inactive) | > 30 µM (inactive) | > 30 µM (inactive) | > 30 µM (inactive) | > 30 µM (inactive) | > 30 µM (inactive) | > 30 µM (inactive) | > 30 µM (inactive) | CC(=O)Nc1cccc(-n2c(=O)n(C3CC3)c(=O)c3c(Nc4ccc(I)cc4F)n(C)c(=O)c(C)c32)c1 [TRAMETINIB]
7 | > 30 µM (inactive) | > 30 µM (inactive) | > 30 µM (inactive) | > 30 µM (inactive) | > 30 µM (inactive) | > 30 µM (inactive) | > 30 µM (inactive) | > 30 µM (inactive) | > 30 µM (inactive) | > 30 µM (inactive) | 38.1 µM (active) | > 30 µM (inactive) | > 30 µM (inactive) | > 30 µM (inactive) | > 30 µM (inactive) | > 30 µM (inactive) | CCN1CCN(Cc2ccc(-c3cc4c(N[C@H](C)c5ccccc5)ncnc4[nH]3)cc2)CC1 [AEE-788]
8 | > 30 µM (inactive) | > 30 µM (inactive) | > 30 µM (inactive) | > 30 µM (inactive) | > 30 µM (inactive) | > 30 µM (inactive) | > 30 µM (inactive) | > 30 µM (inactive) | > 30 µM (inactive) | > 30 µM (inactive) | > 30 µM (inactive) | > 30 µM (inactive) | 0.499 µM (active) | > 30 µM (inactive) | > 30 µM (inactive) | > 30 µM (inactive) | O=C1NC(=O)/C(=C/c2ccc3nccc(-c4ccncc4)c3c2)S1 [GSK-1059615]

Row | SMILES | Kd [1] | Kd [2] | Kd [3] | Kd (Aurora kinase A) | Kd [4] | Kd [5] | Kd [6] | Kd [7] | Kd [8] | Kd [9] | Kd [10] | Kd [11] | Kd [12] | Kd [13] | Kd (Insulin receptor) | Kd (DNA topoisomerase 2-beta)
9 | C=CC(=O)N1CCC(Oc2cc3c(Nc4ccc(Cl)c(Cl)c4F)ncnc3cc2OC)CC1 [POZIOTINIB] | > 30 µM (inactive) | > 30 µM (inactive) | > 30 µM (inactive) | > 30 µM (inactive) | 0.392 µM (active) | > 30 µM (inactive) | > 30 µM (inactive) | > 30 µM (inactive) | > 30 µM (inactive) | > 30 µM (inactive) | > 30 µM (inactive) | > 30 µM (inactive) | > 30 µM (inactive) | > 30 µM (inactive) | > 30 µM (inactive) | > 30 µM (inactive)
10 | CN1CC[C@@H](c2c(O)cc(O)c3c(=O)cc(-c4ccccc4Cl)oc23)[C@@H]1CO | > 30 µM (inactive) | > 30 µM (inactive) | 4.23 µM (active) | > 30 µM (inactive) | > 30 µM (inactive) | > 30 µM (inactive) | > 30 µM (inactive) | > 30 µM (inactive) | > 30 µM (inactive) | > 30 µM (inactive) | > 30 µM (inactive) | > 30 µM (inactive) | > 30 µM (inactive) | > 30 µM (inactive) | > 30 µM (inactive) | > 30 µM (inactive)

— ChEMBL document CHEMBL3991601, “The target landscape of clinical kinase drugs” (Science, 2017)
